Data published in article PMC3923778 (PLoS Currents, 2014).
pIC50: −log10 of the molar value.

Columns and labels:
[1] = design: method as in PMID 8961086; details: rats; ref [27]; read-out: plasma Cmax exposure; cited from earlier work
PDE5 Cat = target: T1, PDE5 Cat (Homo sapiens, UniProt O76074); experiment: IMAP PDE activity assay (Scottish Biomedical); format: biochemical; details: PDE5 Cat (catalytic domain)
T1 construct: using full length PDE5 versus the catalytic domain used in our assays; Scottish Biomedical (contract laboratory)

[2] = Microdialysis PK: SCH-51866 in striatal extracellular dialysate; format: in vivo, mouse; details: single oral dose, male R6/2, 7-8 weeks
Experimental: Microdialysis PK/PD studies were conducted at Brains Online, Inc. (San Francisco, CA, USA) Male R6/2 (CBA/C57Bl/6 strain, CAG 120) mice aged 7-8 weeks (20 - 30 g; The Jackson Laboratory, USA) were used for the experiments. The animals were group housed in plastic cages (3-4 animals / cage) and had access to food and water ad libitum. Experiments were conducted in accordance with the declarations of Helsinki and were approved by the Institutional Animal Care and Use Committee of the University of California, San-Francisco. […] Mice were anesthetized using isoflurane (2%, 800 mL/min O2). Bupivacain/epinephrine was used for local anesthesia. Carprophen was used peri-/post-operative as analgesia. The animals were placed in a stereotaxic frame (Kopf instruments, USA), and microdialysis probes were inserted into the striatum. […] After surgery animals were kept individually in cages and provided food and water ad libitum. Animals were fasted the night before the experiment. Experiments were performed one day after surgery. […] Treatment effects were evaluated among different drug concentrations and also compared to baseline, using two-way ANOVA for repeated measurements followed by Student-Newman-Keuls post-hoc test. […] Pharmacodynamic parameters were calculated using Phoenix™ WinNonlin® Pro Node initial (Pharsight Corporation, Mountain View, CA, USA).

**Q.** With `CN1C(=O)c2nc(Cc3ccc(C(F)(F)F)cc3)[nH]c2N2C1=N[C@H]1CCC[C@H]12` [SCH-51866, (+)-cis-5,6a,7,8,9,9a-hexahydro-2-[4-[trifluro-methyl]phenylmethyl]-5-methyl-cylopent[4,5]imidazo [2,1-b]purin-4(3H)one] as the compound, how does the Cmax [1] read?
**A.** 2.37 to 3.8 µM

**Q.** And the pIC50 (PDE5 Cat)?
**A.** 5.55

**Q.** What about the “SCH-51866 in brain extracellular fluid” value [2] of the same compound?
**A.** dose-dependent accumulation
